Molecules are shown by their SMILES.

System in one series: not listed separately
Description: Hepatic extraction ratio in male CD-1 mouse at 1 mg/kg, iv measured after 8 hrs by LC-MS/MS analysis. In kind it is ADME, organism-based. The conditions noted are these: in vivo, read-out: ERH.
With `CON(C(=O)c1cc(F)ccc1Oc1nncnc1N1CC2(CCN(CC3(C)CC3)CC2)C1)C(C)C`, the hepatic extraction ratio at 8 h is 0.874.
For `C[C@@H]1CCC(=O)N1Cc1cc(F)ccc1Oc1nncnc1N1CC2(CCN(CC3(C)CC3)CC2)C1`, the hepatic extraction ratio at 8 h was 0.574.

The next series concerns HL-60. Description: Cytotoxicity against human HL-60 cells. The format is functional, cell-based.
Conditions: not given
For orientation: IC50 means the concentration that inhibits the measured activity by half. `CCN(C(=O)c1cc(F)ccc1Oc1cncnc1N1CC2(CCN(CC(C)(C)C)CC2)C1)C(C)C` registered an IC50 of over 5000 nM.
Same read-out and setting: the value for `CCN(C(=O)c1cc(F)ccc1Oc1cncnc1N1CC2(CCN(C3CCCC3)CC2)C1)C(C)C` was over 5000 nM.
Still for that read-out and setting: the value for `CCN(C(=O)c1cc(F)ccc1Oc1cncnc1N1CC2(CCN(CC3(C)CC3)CC2)C1)C(C)C` was over 5000 nM; that for `CCN(C(=O)c1cc(F)ccc1Oc1cncnc1N1CC2(CCN(C(=O)C34CC5CC(CC3C5)C4)CC2)C1)C(C)C` was over 5000 nM; that for `CCN(C(=O)c1cc(F)ccc1Oc1cncnc1N1CC2(CCN(CC34CC(C3)C4)CC2)C1)C(C)C` was over 5000 nM.
Still for that read-out and setting: the value for `CCN(C(=O)c1cc(F)ccc1Oc1cncnc1N1CC2(CCN(CC3CCCC3)CC2)C1)C(C)C` was over 5000 nM; that for `CCN(C(=O)c1cc(F)ccc1Oc1cncnc1N1CC2(CCN(C(C)=O)CC2)C1)C(C)C` was over 5000 nM; that for `CCN(C(=O)c1cc(F)ccc1Oc1cncnc1N1CC2(CCN(CC(C)C)CC2)C1)C(C)C` was over 5000 nM.
As to `CCN(C(=O)c1cc(F)ccc1Oc1cncnc1N1CC2(CCN(CC3CCCCC3)CC2)C1)C(C)C`, the IC50 is over 5000 nM.
Still for that read-out and setting: the value for `CCN(C(=O)c1cc(F)ccc1Oc1cncnc1N1CC2(CCN(C[C@@H](O)C(F)(F)F)CC2)C1)C(C)C` was over 5000 nM; that for `CCN(C(=O)c1cc(F)ccc1Oc1cncnc1N1CC2(CCN(Cc3ccc(C#N)cc3)CC2)C1)C(C)C` was over 5000 nM; that for `CCN(C(=O)c1cc(F)ccc1Oc1cncnc1N1CC2(CCN(C[C@H]3CC[C@H](NS(=O)(=O)CC)CC3)CC2)C1)C(C)C` [REVUMENIB] was over 5000 nM.

System in the next series: not listed separately
Description: Half life in male CD-1 mouse at 1 mg/kg, iv measured after 8 hrs by LC-MS/MS analysis. In kind it is ADME, organism-based. The conditions noted are these: in vivo.
The half-life is how long it takes for the measured level to halve. A higher half-life goes with slow decline. `CON(C(=O)c1cc(F)ccc1Oc1nncnc1N1CC2(CCN(CC3(C)CC3)CC2)C1)C(C)C`: the half-life is 0.48 h.
For the compound `C[C@@H]1CCC(=O)N1Cc1cc(F)ccc1Oc1nncnc1N1CC2(CCN(CC3(C)CC3)CC2)C1`, the half-life was 1.77 h.

The next series relates to MV4-11. Description: Antiproliferative activity against human MV4-11 cells assessed as cell growth inhibition measured after 7 days by CellTiter-Glo assay. In kind it is functional, cell-based. The conditions noted are these: MV4-11, 168 h.
For `CCN(C(=O)c1cc(F)ccc1Oc1cncnc1N1CC2(CCN(CC(C)(C)C)CC2)C1)C(C)C`, the IC50 was 72 nM.
As for `CCN(C(=O)c1cc(F)ccc1Oc1cncnc1N1CC2(CCN(C3CCCC3)CC2)C1)C(C)C`, the IC50 worked out at 166 nM.
Regarding `CCN(C(=O)c1cc(F)ccc1Oc1cncnc1N1CC2(CCN(CC3(C)CC3)CC2)C1)C(C)C`, the IC50 is 22 nM.
On the same count and under the same terms, the value for `CCN(C(=O)c1cc(F)ccc1Oc1cncnc1N1CC2(CCN(C(=O)C34CC5CC(CC3C5)C4)CC2)C1)C(C)C` was 58 nM.
Same read-out and setting: the value for `CCN(C(=O)c1cc(F)ccc1Oc1cncnc1N1CC2(CCN(CC34CC(C3)C4)CC2)C1)C(C)C` was 20 nM.
Same read-out and setting: the value for `CCN(C(=O)c1cc(F)ccc1Oc1cncnc1N1CC2(CCN(CC3CCCC3)CC2)C1)C(C)C` was 102 nM; that for `CCN(C(=O)c1cc(F)ccc1Oc1cncnc1N1CC2(CCN(C(C)=O)CC2)C1)C(C)C` was over 5000 nM; that for `CCN(C(=O)c1cc(F)ccc1Oc1cncnc1N1CC2(CCN(CC(C)C)CC2)C1)C(C)C` was 416 nM.
As for `CCN(C(=O)c1cc(F)ccc1Oc1cncnc1N1CC2(CCN(CC3CCCCC3)CC2)C1)C(C)C`, the IC50 is 23 nM.
On the same count and under the same terms, the value for `CCN(C(=O)c1cc(F)ccc1Oc1cncnc1N1CC2(CCN(C[C@@H](O)C(F)(F)F)CC2)C1)C(C)C` was 502 nM.
Same read-out and setting: the value for `CCN(C(=O)c1cc(F)ccc1Oc1cncnc1N1CC2(CCN(Cc3ccc(C#N)cc3)CC2)C1)C(C)C` was 53 nM; that for `CON(C(=O)c1cc(F)ccc1Oc1nncnc1N1CC2(CCN(CC3(C)CC3)CC2)C1)C(C)C` was 10 nM; that for `C[C@@H]1CCC(=O)N1Cc1cc(F)ccc1Oc1nncnc1N1CC2(CCN(CC3(C)CC3)CC2)C1` was 40 nM.
Same read-out and setting: the value for `CCN(C(=O)c1cc(F)ccc1Oc1cncnc1N1CC2(CCN(C[C@H]3CC[C@H](NS(=O)(=O)CC)CC3)CC2)C1)C(C)C` [REVUMENIB] was 10 nM.

System in a further series: not listed separately
Description: Volume of distribution at steady state in male CD-1 mouse at 1 mg/kg, iv measured after 8 hrs by LC-MS/MS analysis. In kind it is ADME, organism-based. The conditions noted are these: in vivo, read-out: Vdss.
With `CON(C(=O)c1cc(F)ccc1Oc1nncnc1N1CC2(CCN(CC3(C)CC3)CC2)C1)C(C)C`, the Vd was found to be 1.7 L/kg.
The same measure, in the same setting: the value for `C[C@@H]1CCC(=O)N1Cc1cc(F)ccc1Oc1nncnc1N1CC2(CCN(CC3(C)CC3)CC2)C1` was 5.48 L/kg.

System in a further series: not listed separately
Description: AUCinfinity in male CD-1 mouse at 1 mg/kg, iv measured after 8 hrs by LC-MS/MS analysis. In kind it is ADME, organism-based. Particulars: in vivo.
A word on the AUC(0-inf): it is the area under the concentration-time curve extrapolated to infinity. Turning to `CON(C(=O)c1cc(F)ccc1Oc1nncnc1N1CC2(CCN(CC3(C)CC3)CC2)C1)C(C)C`, the AUC(0-inf) stood at 212 ng·h/mL.
Same read-out and setting: the value for `C[C@@H]1CCC(=O)N1Cc1cc(F)ccc1Oc1nncnc1N1CC2(CCN(CC3(C)CC3)CC2)C1` was 323 ng·h/mL.

System in a further series: not listed separately
Description: Apparent permeability across apical to basolateral side in MDR1 knockout dog MDCKII cells incubated for 2 hrs by LC-MS/MS analysis. Particulars: MDCK. The format is ADME, cell-based, Canis lupus familiaris, MDCK-II.
In general, Papp A→B refers to how fast a substance crosses the layer from the apical side. As for `CCN(C(=O)c1cc(F)ccc1Oc1cncnc1N1CC2(CCN(CC3(C)CC3)CC2)C1)C(C)C`, the Papp A→B at 2 h is 26 ×10⁻⁶ cm/s.
Turning to `CON(C(=O)c1cc(F)ccc1Oc1nncnc1N1CC2(CCN(CC3(C)CC3)CC2)C1)C(C)C`, the Papp A→B at 2 h came to 30 ×10⁻⁶ cm/s.
For `C[C@@H]1CCC(=O)N1Cc1cc(F)ccc1Oc1nncnc1N1CC2(CCN(CC3(C)CC3)CC2)C1`, the Papp A→B at 2 h turned out to be 9 ×10⁻⁶ cm/s.

In another series the target is Voltage-gated inwardly rectifying potassium channel KCNH2 (Homo sapiens, UniProt Q12809). Description: Inhibition of hERG expressed in CHO cells. The format is toxicity, cell-based.
Sequence of Voltage-gated inwardly rectifying potassium channel KCNH2 (Q12809 whole entry): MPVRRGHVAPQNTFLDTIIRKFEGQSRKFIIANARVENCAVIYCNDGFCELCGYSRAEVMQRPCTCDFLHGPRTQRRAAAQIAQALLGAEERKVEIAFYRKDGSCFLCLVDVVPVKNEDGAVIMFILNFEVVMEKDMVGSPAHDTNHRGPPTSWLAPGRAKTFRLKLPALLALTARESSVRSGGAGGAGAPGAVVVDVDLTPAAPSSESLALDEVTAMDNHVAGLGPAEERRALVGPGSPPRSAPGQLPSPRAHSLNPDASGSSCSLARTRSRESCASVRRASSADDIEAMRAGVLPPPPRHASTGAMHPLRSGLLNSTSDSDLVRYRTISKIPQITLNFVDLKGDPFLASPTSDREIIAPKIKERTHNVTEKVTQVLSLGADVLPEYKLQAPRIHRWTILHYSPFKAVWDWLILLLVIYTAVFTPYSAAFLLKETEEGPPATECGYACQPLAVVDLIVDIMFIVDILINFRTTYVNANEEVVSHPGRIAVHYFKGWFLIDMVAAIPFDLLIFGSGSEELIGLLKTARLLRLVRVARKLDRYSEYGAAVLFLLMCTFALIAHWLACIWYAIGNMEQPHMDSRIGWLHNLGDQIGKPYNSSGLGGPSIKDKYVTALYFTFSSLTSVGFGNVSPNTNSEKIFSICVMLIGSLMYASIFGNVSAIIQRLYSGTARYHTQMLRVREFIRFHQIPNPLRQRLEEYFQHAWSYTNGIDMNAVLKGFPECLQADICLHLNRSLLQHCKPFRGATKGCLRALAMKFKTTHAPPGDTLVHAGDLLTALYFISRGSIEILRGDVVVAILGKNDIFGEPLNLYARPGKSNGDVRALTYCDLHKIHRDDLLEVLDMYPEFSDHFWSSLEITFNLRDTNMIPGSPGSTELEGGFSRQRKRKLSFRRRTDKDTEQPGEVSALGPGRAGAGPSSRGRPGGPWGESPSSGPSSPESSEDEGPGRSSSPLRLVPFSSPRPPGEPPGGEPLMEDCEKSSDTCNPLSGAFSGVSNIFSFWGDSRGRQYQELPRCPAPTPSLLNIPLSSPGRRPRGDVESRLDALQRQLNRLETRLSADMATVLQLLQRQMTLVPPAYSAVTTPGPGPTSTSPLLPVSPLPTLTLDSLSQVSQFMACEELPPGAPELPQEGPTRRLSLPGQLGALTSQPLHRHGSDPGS
Conditions: not given
With `CCN(C(=O)c1cc(F)ccc1Oc1cncnc1N1CC2(CCN(CC(C)(C)C)CC2)C1)C(C)C`, half-maximal inhibition (IC50) was put at 2900 nM.
Consider `CCN(C(=O)c1cc(F)ccc1Oc1cncnc1N1CC2(CCN(CC3(C)CC3)CC2)C1)C(C)C`, for which the IC50 was found to be 10800 nM.
Still for that read-out and setting: the value for `CCN(C(=O)c1cc(F)ccc1Oc1cncnc1N1CC2(CCN(C(=O)C34CC5CC(CC3C5)C4)CC2)C1)C(C)C` was over 100000 nM.
Still for that read-out and setting: the value for `CCN(C(=O)c1cc(F)ccc1Oc1cncnc1N1CC2(CCN(CC3CCCCC3)CC2)C1)C(C)C` was 3500 nM; that for `CCN(C(=O)c1cc(F)ccc1Oc1cncnc1N1CC2(CCN(Cc3ccc(C#N)cc3)CC2)C1)C(C)C` was under 1000 nM.
As to `CCN(C(=O)c1cc(F)ccc1Oc1cncnc1N1CC2(CCN(C[C@H]3CC[C@H](NS(=O)(=O)CC)CC3)CC2)C1)C(C)C` [REVUMENIB], the IC50 was determined as 5000 nM.

System in the next series: not listed separately
Description: Metabolic stability in human hepatocytes assessed as clearance by LC-MS analysis. The conditions noted are these: read-out: CLH. In kind it is ADME, cell-based, Hepatocyte.
Turning to `CCN(C(=O)c1cc(F)ccc1Oc1cncnc1N1CC2(CCN(CC3(C)CC3)CC2)C1)C(C)C`, the CLint scaled was 11 mL/min/kg.
On the same count and under the same terms, the value for `CON(C(=O)c1cc(F)ccc1Oc1nncnc1N1CC2(CCN(CC3(C)CC3)CC2)C1)C(C)C` was 7 mL/min/kg; that for `C[C@@H]1CCC(=O)N1Cc1cc(F)ccc1Oc1nncnc1N1CC2(CCN(CC3(C)CC3)CC2)C1` was 3 mL/min/kg.

System in a further series: not listed separately
Description: Inhibition of His6-tagged MEN1 458-551 deletion A5T mutant (2 to 583 residues)/MLL (unknown origin) transfected in Escherichia coli BL21 (DE3) protein-protein interaction by TR-FRET assay. Set-up: species or system Homo sapiens.
Conditions: not given
(In general: TR-FRET usually uses a lanthanide donor and a delayed reading to cut background.)
In turn, `CCN(C(=O)c1cc(F)ccc1Oc1cncnc1N1CC2(CCN(CC(C)(C)C)CC2)C1)C(C)C` yielded an IC50 of 12 nM.
On the same count and under the same terms, the value for `CCN(C(=O)c1cc(F)ccc1Oc1cncnc1N1CC2(CCN(C3CCCC3)CC2)C1)C(C)C` was 18 nM; that for `CCN(C(=O)c1cc(F)ccc1Oc1cncnc1N1CC2(CCN(CC3(C)CC3)CC2)C1)C(C)C` was 7 nM.
On the same count and under the same terms, the value for `CCN(C(=O)c1cc(F)ccc1Oc1cncnc1N1CC2(CCN(C(=O)C34CC5CC(CC3C5)C4)CC2)C1)C(C)C` was 8 nM.
On the same count and under the same terms, the value for `CCN(C(=O)c1cc(F)ccc1Oc1cncnc1N1CC2(CCN(CC34CC(C3)C4)CC2)C1)C(C)C` was 13 nM; that for `CCN(C(=O)c1cc(F)ccc1Oc1cncnc1N1CC2(CCN(CC3CCCC3)CC2)C1)C(C)C` was 4 nM; that for `CCN(C(=O)c1cc(F)ccc1Oc1cncnc1N1CC2(CCN(C(C)=O)CC2)C1)C(C)C` was 160 nM.
As for `CCN(C(=O)c1cc(F)ccc1Oc1cncnc1N1CC2(CCN(CC(C)C)CC2)C1)C(C)C`, it took 66 nM to reach half-maximal inhibition (IC50).
Same read-out and setting: the value for `CCN(C(=O)c1cc(F)ccc1Oc1cncnc1N1CC2(CCN(CC3CCCCC3)CC2)C1)C(C)C` was 8 nM; that for `CCN(C(=O)c1cc(F)ccc1Oc1cncnc1N1CC2(CCN(C[C@@H](O)C(F)(F)F)CC2)C1)C(C)C` was 33 nM.
On the same count and under the same terms, the value for `CCN(C(=O)c1cc(F)ccc1Oc1cncnc1N1CC2(CCN(Cc3ccc(C#N)cc3)CC2)C1)C(C)C` was 12 nM; that for `CON(C(=O)c1cc(F)ccc1Oc1nncnc1N1CC2(CCN(CC3(C)CC3)CC2)C1)C(C)C` was 4 nM.
Still for that read-out and setting: the value for `C[C@@H]1CCC(=O)N1Cc1cc(F)ccc1Oc1nncnc1N1CC2(CCN(CC3(C)CC3)CC2)C1` was 4 nM.
`CCN(C(=O)c1cc(F)ccc1Oc1cncnc1N1CC2(CCN(C[C@H]3CC[C@H](NS(=O)(=O)CC)CC3)CC2)C1)C(C)C` [REVUMENIB] showed an IC50 of 0.149 nM.

System in the next series: not listed separately
Description: Clearance in male CD-1 mouse at 1 mg/kg, iv measured after 8 hrs by LC-MS/MS analysis. The format is ADME, organism-based. Particulars: in vivo.
What is called clearance is the volume of plasma or blood freed of the substance per unit of time. For the compound `CON(C(=O)c1cc(F)ccc1Oc1nncnc1N1CC2(CCN(CC3(C)CC3)CC2)C1)C(C)C`, the clearance was 78.7 mL/min/kg.
The same measure, in the same setting: the value for `C[C@@H]1CCC(=O)N1Cc1cc(F)ccc1Oc1nncnc1N1CC2(CCN(CC3(C)CC3)CC2)C1` was 51.6 mL/min/kg.

The values above are taken from ChEMBL document CHEMBL6103599, “Design of Potent Menin-KMT2A Interaction Inhibitors with Improved In Vitro ADME Properties and Reduced hERG Affinity” (ACS Med Chem Lett, 2025).
